Source: ChEMBL document CHEMBL1201862, “PubChem BioAssay data set” (2004)
Calls of active or inactive are those of the source.

Key:
[1] = biological target: Peroxisome proliferator-activated receptor gamma/Nuclear receptor coactivator 1 (Homo sapiens, UniProt P37231); assay type: functional;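 further: agonist potency as compounds enhance coactivator SRC-1 recruitment to PPARgamma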
[2] = biological target: Peroxisome proliferator-activated receptor gamma/Nuclear receptor coactivator 3 (Homo sapiens, UniProt P37231); assay type: functional;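 further: agonist potency for raising coactivator recruitment to the receptor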
Chain of Peroxisome proliferator-activated receptor gamma/Nuclear receptor coactivator 3 (P37231 whole entry): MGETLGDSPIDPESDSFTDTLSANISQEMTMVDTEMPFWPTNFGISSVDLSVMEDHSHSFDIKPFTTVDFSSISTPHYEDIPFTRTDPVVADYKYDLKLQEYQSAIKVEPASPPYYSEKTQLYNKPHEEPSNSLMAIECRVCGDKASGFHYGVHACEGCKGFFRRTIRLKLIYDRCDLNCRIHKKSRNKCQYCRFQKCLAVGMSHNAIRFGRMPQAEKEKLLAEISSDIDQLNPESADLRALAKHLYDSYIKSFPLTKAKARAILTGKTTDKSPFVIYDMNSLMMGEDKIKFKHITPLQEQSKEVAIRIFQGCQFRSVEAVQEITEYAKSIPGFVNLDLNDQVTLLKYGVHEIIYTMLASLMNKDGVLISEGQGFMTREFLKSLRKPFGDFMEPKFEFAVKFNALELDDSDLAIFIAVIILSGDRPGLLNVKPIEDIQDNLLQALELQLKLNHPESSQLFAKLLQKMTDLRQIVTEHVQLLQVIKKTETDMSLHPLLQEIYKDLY
Chain of Peroxisome proliferator-activated receptor gamma/Nuclear receptor coactivator 3 (Q9Y6Q9 whole entry, further chain): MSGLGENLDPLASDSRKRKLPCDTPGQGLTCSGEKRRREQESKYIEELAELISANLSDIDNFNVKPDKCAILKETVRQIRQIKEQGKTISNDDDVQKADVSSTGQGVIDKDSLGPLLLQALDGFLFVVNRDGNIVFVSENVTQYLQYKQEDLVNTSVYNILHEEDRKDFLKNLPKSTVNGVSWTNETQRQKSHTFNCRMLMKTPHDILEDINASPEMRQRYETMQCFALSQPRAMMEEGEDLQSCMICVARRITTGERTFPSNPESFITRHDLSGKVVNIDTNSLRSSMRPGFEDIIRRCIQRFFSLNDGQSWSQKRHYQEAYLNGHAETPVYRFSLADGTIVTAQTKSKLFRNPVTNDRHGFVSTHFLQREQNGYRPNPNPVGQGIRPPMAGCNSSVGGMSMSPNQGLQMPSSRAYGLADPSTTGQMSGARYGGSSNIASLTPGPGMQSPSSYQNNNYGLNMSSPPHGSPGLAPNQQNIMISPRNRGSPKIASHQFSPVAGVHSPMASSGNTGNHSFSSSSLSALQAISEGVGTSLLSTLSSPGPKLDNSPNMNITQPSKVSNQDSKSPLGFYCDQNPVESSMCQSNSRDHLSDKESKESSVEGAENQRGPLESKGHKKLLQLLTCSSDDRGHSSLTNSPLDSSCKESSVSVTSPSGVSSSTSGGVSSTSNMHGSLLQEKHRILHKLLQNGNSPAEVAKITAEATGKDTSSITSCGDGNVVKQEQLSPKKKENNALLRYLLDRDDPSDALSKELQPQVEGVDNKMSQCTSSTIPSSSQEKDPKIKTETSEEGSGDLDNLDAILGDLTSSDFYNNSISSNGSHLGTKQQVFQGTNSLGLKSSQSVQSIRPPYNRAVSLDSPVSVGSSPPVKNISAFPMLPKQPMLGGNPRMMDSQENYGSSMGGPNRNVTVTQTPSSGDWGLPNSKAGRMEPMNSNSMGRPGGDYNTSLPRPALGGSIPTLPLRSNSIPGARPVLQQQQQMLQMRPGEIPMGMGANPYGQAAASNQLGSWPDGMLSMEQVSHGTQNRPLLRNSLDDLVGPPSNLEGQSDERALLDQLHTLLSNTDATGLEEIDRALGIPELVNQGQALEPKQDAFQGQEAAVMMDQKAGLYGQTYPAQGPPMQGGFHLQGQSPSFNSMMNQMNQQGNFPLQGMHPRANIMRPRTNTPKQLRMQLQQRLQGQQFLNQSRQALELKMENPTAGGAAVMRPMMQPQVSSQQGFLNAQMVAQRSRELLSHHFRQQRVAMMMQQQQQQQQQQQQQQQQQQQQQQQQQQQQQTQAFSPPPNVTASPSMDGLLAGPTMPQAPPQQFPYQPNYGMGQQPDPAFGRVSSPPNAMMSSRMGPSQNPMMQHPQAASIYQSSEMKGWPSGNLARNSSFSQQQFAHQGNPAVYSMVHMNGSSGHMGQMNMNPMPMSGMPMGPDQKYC

[3] = biological target: Peroxisome proliferator-activated receptor gamma/Nuclear receptor coactivator 2 (Homo sapiens, UniProt P37231); assay type: functional;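 further: agonist potency for raising coactivator recruitment to the receptor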
Chain of Peroxisome proliferator-activated receptor gamma/Nuclear receptor coactivator 2 (P37231 whole entry): as the sequence (P37231 whole entry) above
Chain of Peroxisome proliferator-activated receptor gamma/Nuclear receptor coactivator 2 (Q15596 whole entry, further chain): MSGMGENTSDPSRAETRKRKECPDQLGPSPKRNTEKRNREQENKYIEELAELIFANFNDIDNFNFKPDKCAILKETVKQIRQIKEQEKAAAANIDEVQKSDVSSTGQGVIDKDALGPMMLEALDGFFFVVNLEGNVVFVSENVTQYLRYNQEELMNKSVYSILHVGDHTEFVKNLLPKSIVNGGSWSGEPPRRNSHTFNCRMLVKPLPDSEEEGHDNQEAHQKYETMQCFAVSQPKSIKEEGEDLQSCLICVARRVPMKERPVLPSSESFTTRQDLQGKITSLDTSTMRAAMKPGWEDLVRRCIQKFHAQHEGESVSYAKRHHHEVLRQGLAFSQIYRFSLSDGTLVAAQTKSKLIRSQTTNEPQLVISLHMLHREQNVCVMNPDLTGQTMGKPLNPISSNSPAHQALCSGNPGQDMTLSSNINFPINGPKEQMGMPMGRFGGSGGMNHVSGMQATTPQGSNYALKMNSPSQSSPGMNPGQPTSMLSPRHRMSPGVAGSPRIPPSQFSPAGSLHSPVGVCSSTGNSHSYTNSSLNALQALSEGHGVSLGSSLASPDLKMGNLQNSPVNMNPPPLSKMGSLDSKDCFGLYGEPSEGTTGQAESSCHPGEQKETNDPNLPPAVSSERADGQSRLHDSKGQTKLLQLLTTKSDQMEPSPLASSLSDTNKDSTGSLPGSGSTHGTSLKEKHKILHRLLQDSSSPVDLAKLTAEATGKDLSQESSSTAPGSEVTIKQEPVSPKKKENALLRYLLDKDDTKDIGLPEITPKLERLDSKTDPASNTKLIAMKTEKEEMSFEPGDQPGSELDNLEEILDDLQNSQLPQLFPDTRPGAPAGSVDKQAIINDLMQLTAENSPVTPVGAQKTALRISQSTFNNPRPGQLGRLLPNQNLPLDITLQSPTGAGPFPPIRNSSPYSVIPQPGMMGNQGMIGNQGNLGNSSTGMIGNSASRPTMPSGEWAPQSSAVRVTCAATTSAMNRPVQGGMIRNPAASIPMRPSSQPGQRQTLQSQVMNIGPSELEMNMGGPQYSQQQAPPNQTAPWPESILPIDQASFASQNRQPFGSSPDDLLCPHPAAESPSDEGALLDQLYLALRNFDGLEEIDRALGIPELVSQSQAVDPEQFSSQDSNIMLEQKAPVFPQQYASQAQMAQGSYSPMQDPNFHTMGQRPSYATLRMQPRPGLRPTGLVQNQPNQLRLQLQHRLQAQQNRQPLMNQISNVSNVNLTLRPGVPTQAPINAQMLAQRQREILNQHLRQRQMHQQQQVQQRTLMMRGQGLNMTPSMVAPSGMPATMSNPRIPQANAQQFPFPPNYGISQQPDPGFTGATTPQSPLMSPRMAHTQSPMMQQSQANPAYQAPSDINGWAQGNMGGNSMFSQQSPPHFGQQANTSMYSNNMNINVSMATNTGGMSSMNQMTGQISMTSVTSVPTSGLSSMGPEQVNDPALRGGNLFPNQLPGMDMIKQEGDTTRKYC

[4] = biological target: T1, Calpain-2 catalytic subunit (Sus scrofa, UniProt P43367); test: m-calpain protease blockers, concentration series – biochemical, fluorogenic peptide substrate, dose response (AID 1420); assay type: functional
T1 sequence (P43367 whole entry): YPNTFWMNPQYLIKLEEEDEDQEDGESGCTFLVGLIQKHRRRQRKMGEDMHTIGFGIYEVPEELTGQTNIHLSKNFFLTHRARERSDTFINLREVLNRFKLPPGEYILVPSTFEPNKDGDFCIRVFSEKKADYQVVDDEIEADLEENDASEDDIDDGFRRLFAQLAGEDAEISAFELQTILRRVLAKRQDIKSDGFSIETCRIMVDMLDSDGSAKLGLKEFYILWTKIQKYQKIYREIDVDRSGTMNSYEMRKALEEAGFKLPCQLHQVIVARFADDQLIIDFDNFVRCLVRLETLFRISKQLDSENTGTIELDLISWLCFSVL

Streptokinase A = biological target: T2, Streptokinase A (Streptococcus pyogenes serotype M1, UniProt P10520); test: viability-normalized secreted streptokinase activity reduction – plasminogen activation absorbance, OD405, dose response (AID 1914); assay type: functional, Streptococcus pyogenes M1 GAS;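 further: secreted streptokinase activity via plasminogen activation per viability signal from cell pellet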
T2 sequence (P10520 whole entry): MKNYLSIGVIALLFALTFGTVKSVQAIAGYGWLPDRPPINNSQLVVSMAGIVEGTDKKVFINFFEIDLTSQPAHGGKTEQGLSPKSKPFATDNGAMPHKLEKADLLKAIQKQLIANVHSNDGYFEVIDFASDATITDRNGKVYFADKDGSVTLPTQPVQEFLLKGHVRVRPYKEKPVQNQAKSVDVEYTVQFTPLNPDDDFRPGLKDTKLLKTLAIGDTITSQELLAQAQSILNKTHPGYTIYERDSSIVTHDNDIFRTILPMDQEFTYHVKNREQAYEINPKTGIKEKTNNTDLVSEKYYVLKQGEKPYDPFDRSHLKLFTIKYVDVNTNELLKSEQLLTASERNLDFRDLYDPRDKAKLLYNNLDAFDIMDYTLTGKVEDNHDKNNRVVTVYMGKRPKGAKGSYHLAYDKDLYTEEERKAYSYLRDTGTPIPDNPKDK

[5] = test system: Streptococcus sp. 'group A'; test: Streptococcus pyogenes SK(-)GAS viability under kanamycin – luminescence, BacTiterGlo, confirmation, counter-screen for streptokinase expression inhibitor project, dose response (AID 1900); assay type: functional, organism-based
Streptococcus = test: GAS UMAA2166 growth inhibition – luminescence, BacTiterGlo, counter-screen for streptokinase expression inhibitor project, dose response (AID 1915); assay type: functional, organism-based;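 further: potency for reduction of bacterial viability or growth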
[6] = microbe, parasite or virus in culture; assay type: functional; conditions: Mycobacterium tuberculosis
[7] = biological target: T3, High affinity choline transporter 1 (Homo sapiens, UniProt Q9GZV3); test: human choline transporter blockers, potency – cell-based, 5-point CRC, membrane potential dye, dose response (AID 504840); assay type: functional
T3 sequence (Q9GZV3 whole entry): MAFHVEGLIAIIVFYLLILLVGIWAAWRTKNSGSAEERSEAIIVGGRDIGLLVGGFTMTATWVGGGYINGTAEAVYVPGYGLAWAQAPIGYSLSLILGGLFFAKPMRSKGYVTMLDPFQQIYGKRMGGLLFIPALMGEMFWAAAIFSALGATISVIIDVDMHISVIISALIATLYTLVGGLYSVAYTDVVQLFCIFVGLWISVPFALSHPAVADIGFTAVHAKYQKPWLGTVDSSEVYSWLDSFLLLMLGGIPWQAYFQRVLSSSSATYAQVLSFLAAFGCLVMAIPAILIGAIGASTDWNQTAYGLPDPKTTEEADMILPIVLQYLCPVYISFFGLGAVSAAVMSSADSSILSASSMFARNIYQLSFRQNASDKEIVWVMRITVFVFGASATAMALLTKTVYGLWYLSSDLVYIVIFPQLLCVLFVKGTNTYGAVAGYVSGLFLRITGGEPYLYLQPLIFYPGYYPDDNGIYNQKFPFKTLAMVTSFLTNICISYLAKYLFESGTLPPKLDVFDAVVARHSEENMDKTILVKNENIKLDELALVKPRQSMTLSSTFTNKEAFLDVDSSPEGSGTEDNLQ

[8] = biological target: Induced myeloid leukemia cell differentiation protein Mcl-1 (Homo sapiens, UniProt Q07820); assay type: functional
Chain of Induced myeloid leukemia cell differentiation protein Mcl-1 (Q07820 whole entry): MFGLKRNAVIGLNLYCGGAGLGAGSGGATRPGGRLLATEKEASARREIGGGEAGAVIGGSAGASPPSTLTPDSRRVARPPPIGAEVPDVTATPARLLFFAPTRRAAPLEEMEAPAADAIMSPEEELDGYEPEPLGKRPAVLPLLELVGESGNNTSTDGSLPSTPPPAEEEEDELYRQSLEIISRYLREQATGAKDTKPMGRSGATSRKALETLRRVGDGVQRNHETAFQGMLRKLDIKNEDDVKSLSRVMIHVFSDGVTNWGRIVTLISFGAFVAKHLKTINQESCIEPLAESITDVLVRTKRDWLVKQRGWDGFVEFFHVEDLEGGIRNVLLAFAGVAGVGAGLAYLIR

[9] = Luminescence Cell-Based Dose Retest to Confirm Inhibitors of Cancer Stem Cells. [Related pubchem assays (depositor defined):AID2717, AID2721]; assay type: functional; conditions: Homo sapiens
[10] = NIH3T3 cell viability loss – ATP luminescence, mouse fibroblasts, counter-screen, dose response (AID 2010); assay type: functional, cell-based;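 further: cells exposed to compound for about 90 hours before reading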
[11] = Trypanosoma cruzi growth suppression in host cells – NIH3T3 host cells, beta-gal luminescence, confirmation (AID 2044); assay type: functional, cell-based;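 further: intracellular parasites grown in NIH/3T3 mouse fibroblasts as host cells; luminescent beta-galactosidase reporter signal from transgenic T. cruzi replicating inside host cells; inhibitors lower the luminescence signal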
[12] = biological target: T4, Short transient receptor potential channel 4 (Mus musculus, UniProt Q9QUQ5); test: block of DAMGO-driven TRPC4 calcium entry – cell-based, HEK293 TRPC4/mu-opioid, Fluo-4 calcium, dose response (AID 434942); assay type: functional;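 further: potency of inhibitors blocking the TRPC4 calcium response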
T4 sequence (Q9QUQ5 whole entry): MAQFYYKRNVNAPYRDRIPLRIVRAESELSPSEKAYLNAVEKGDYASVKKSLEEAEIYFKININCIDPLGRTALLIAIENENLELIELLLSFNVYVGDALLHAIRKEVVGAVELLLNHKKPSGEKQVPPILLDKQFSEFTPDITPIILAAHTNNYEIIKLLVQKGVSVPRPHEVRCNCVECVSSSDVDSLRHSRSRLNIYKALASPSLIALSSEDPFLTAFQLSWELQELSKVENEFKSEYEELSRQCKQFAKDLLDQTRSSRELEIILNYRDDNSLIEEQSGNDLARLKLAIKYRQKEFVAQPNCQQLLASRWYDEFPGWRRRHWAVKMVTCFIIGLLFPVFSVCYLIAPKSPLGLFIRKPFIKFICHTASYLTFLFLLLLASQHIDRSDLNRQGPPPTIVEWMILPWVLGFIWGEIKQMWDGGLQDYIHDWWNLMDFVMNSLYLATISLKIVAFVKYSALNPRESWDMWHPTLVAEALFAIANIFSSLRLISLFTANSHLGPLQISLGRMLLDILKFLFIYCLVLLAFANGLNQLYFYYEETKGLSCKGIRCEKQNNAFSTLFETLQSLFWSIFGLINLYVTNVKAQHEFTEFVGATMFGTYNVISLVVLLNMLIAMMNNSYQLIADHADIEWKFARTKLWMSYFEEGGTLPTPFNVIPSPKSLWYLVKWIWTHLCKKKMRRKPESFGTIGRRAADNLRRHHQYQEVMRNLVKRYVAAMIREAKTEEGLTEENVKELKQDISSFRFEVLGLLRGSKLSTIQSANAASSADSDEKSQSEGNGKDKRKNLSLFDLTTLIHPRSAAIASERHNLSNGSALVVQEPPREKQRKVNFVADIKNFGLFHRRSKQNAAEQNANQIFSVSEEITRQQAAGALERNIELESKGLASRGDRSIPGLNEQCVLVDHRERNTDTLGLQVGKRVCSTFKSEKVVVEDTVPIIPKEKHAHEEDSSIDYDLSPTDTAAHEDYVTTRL

Protein RecA = biological target: T5, Protein RecA (Mycobacterium tuberculosis, UniProt P9WHJ3); test: Fluorescence Cell-Free Homogeneous Dose Retest to Identify Inhibitors of RecA-Intein Splicing Activity. [Related pubchem assays (depositor defined):AID2097, AID2223, AID489010, AID492950]; assay type: functional
T5 sequence (P9WHJ3 whole entry): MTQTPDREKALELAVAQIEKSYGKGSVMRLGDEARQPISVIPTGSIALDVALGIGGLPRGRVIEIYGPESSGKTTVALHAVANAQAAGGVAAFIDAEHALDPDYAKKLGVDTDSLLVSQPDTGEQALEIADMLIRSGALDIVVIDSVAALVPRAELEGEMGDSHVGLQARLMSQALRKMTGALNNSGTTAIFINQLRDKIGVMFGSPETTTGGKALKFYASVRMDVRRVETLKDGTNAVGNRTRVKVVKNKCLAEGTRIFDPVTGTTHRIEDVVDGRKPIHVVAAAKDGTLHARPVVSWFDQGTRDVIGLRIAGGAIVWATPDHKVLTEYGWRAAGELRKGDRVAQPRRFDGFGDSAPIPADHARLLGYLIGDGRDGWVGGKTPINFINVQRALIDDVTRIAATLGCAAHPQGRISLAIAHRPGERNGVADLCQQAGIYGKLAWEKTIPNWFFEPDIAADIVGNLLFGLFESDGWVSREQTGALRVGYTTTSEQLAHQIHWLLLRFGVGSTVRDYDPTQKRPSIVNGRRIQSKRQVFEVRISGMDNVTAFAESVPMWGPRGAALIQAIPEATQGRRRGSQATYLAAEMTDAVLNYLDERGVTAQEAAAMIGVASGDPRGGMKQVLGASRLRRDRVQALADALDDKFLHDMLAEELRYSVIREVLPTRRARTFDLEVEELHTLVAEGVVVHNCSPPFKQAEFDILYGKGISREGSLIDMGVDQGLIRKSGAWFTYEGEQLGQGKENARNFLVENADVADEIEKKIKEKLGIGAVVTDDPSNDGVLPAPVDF

[13] = biological target: T6, Mannose-6-phosphate isomerase (Homo sapiens, UniProt P34949); test: MPI inhibition at elevated mannose 6-phosphate – biochemical, fluorescence intensity, high mannose 6-phosphate, primary screen (AID 1220)
T6 sequence (P34949 whole entry): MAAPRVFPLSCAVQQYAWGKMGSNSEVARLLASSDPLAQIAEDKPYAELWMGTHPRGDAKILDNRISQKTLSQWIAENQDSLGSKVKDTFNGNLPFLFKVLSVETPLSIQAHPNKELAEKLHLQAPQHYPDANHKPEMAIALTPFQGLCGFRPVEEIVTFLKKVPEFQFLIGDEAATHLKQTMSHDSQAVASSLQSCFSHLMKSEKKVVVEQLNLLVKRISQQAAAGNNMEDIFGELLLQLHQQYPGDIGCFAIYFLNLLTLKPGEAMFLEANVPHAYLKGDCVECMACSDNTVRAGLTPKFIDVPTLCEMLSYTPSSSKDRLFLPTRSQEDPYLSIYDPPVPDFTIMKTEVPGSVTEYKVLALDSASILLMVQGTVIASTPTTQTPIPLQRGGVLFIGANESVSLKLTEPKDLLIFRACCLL

Cytochrome P450 3A4 = Cytochrome P450 3A4 (Homo sapiens, UniProt P08684);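 further: CYP3A4 tested as one member of a cytochrome P450 panel screen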
Chain of Cytochrome P450 3A4 (P08684 whole entry): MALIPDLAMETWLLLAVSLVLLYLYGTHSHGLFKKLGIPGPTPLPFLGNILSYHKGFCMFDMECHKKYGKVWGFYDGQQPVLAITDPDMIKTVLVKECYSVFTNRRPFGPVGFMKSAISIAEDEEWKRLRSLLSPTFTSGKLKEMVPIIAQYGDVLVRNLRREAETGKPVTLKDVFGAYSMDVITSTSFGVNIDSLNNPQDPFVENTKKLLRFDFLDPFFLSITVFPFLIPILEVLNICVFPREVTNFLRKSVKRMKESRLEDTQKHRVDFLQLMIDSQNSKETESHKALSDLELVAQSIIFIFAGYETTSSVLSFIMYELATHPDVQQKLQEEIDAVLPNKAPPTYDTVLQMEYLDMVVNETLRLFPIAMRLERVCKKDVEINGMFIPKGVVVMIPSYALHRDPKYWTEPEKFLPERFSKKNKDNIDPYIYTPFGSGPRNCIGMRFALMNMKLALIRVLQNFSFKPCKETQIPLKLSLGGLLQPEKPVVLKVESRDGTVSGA

## Cc1ccc(NS(=O)(=O)c2ccc(OCC(=O)NCc3cccnc3)cc2)cc1
[1]
  EC50: > 79.4 µM (not active)
[2]
  EC50: > 79.4 µM (not active)
[3]
  EC50: > 79.4 µM (not active)

## Oc1c(Cl)cc(Cl)cc1C(C#Cc1ccccc1)N1CCOCC1 (stereo not drawn)
[4]
  IC50: 12.8 µM (not active)
Streptokinase A
  EC50: 26.8 µM (active)
[5]
  EC50: 16.6 µM (active)
Streptococcus
  EC50: 48.9 µM (active)

## O=C(Nc1cccc(-c2ccc(N3CCCCC3)nn2)c1)c1ccc(Br)o1
[6]
  CC50: > 40 µM (active)

## O=C(NNc1nc(-c2ccccc2)cs1)c1ccccc1
[7]
  IC50: 14.5 µM (active)
[6]
  CC50: > 40 µM (active)

## C=CCn1c(=O)c2ccccc2n2c(SCc3nc(N)nc(Nc4ccccc4C)n3)nnc12
[1]
  EC50: > 79.4 µM (not active)
[2]
  EC50: > 79.4 µM (not active)
[3]
  EC50: > 79.4 µM (not active)

## COc1ccc(Cl)c(N2CCN(CCCNC(=O)Nc3ccc(C)cc3)CC2)c1
[8]
  IC50: 6.56 µM (active)

## Cc1ccc(C(=O)Nc2nnc(-c3cccs3)s2)cc1C
[1]
  EC50: 9.78 µM (active)
[2]
  EC50: > 79.4 µM (not active)
[3]
  EC50: 9.65 µM (active)

## O=C(NC(=S)NCC1CCCO1)c1ccc(Br)o1 (stereo not drawn)
[4]
  IC50: 1.43 µM (not active)

## O=C(CCc1ccc(Oc2cc([N+](=O)[O-])cc([N+](=O)[O-])c2)cc1)N1CCCCCC1
[9]
  AC50: 4.73 µM (active)
[10]
  EC50: > 30 µM (not active)
[11]
  EC50: 0.187 µM (active)
[6]
  CC50: > 40 µM (active)

## COc1ccc(C(=O)N2c3ccccc3CC2C)cc1OC (stereo not drawn)
[8]
  IC50: 0.799 µM (not active)

## CCOc1ccc(-c2ccc(/C=C3/C(=N)N4C=CSC4=NC3=O)o2)c([N+](=O)[O-])c1
[8]
  IC50: 1.48 µM (active)

## Cc1c(N)c(C(C)(C)C)cc(C(C)(C)C)c1[N+](=O)[O-]
[12]
  EC50: 4.22 µM (active)

## CC1CCCCN1Cc1cnc(Cl)s1 (stereo not drawn)
[4]
  IC50: > 50 µM (not active)

## c1ccc(-c2c3c4ccccc4nc-3[nH]c3ccccc23)cc1
[9]
  AC50: 2.03 µM (active)
[6]
  CC50: > 40 µM (active)

## CN1c2ccccc2C(C)(C)C12C=Nc1c(cc(N3CCOCC3)c3ccccc13)O2 (stereo not drawn)
Protein RecA
  EC50: 50.5 µM (inconclusive)
[13]
  IC50: > 50 µM (not active)
Cytochrome P450 3A4
  AC50: 4.47 µM (inconclusive)

## CCCCOc1ccc(C(=O)N/C(=C/C=C/c2ccccc2)C(=O)O)cc1
[1]
  EC50: > 79.4 µM (not active)
[2]
  EC50: > 79.4 µM (not active)
[3]
  EC50: > 79.4 µM (not active)

## c1ccc(C2=Nn3c(nnc3-c3ccco3)SC2)cc1
[13]
  IC50: > 50 µM (not active)

## COc1ccc(C(CC(=O)c2ccccc2)S(=O)(=O)c2ccc(C)cc2)cc1 (stereo not drawn)
[6]
  CC50: > 40 µM (active)

## COc1cccc(O)c1CN1CCCC(C(=O)c2sccc2C)C1 (stereo not drawn)
[12]
  EC50: 3.35 µM (active)

## Cc1ccc(NC(=O)CN2CCc3ccccc3C2)cc1F
[12]
  EC50: 6.68 µM (active)

## CCOC(=O)c1c(N)sc(N)c1C(=O)OCC
[13]
  IC50: > 50 µM (not active)

## COc1ccc(C(CNC(=O)c2oc3ccc(Cl)cc3c2C)N2CCCCC2)cc1 (stereo not drawn)
[12]
  EC50: 15 µM (active)

## O=c1cc(-c2ccccc2)oc2cc(OCc3ccccc3)cc(O)c12
[4]
  IC50: > 50 µM (not active)

## OCc1ccccc1CNCc1ccccc1
[12]
  EC50: 2.99 µM (active)

## CCCCNC(=S)N/N=C1\CCCCc2ccccc21
[4]
  IC50: 11.2 µM (not active)
